In patent US9409952B2, “Peptide-compound cyclization method” (Chugai Seiyaku Kabushiki Kaisha, priority 2011, dated 2016):
Like-named read-outs stand apart in the source and are kept apart here. Starred links: 1 amine or outer side, 2 acyl side, 3 side chain; linkers in the order of their positions; H or OH if unused. Positions of bridges follow the written chain, without caps; N, C: chain ends. Non-standard residues stand in square brackets, D forms with d. Residues, ends and D or L forms follow the SMILES beside them. *: point of attachment. X2 = O=C(C[C@H](N[*:1])C(F)(F)F)[*:2]; NMeF = CN[C@@H](Cc1ccccc1)C(=O)O; NMeGABA = CN(CCCC(=O)[*:2])[*:1]; NMeβAla = CN(CCC(=O)[*:2])[*:1]; NMeL = CN[C@@H](CC(C)C)C(=O)O; NMeV = CN[C@H](C(=O)O)C(C)C; NMeS = CN[C@@H](CO)C(=O)O; NMeA = CN[C@@H](C)C(=O)O; Piperidide = C1CCN(*)CC1; dNMeA = CN[C@H](C)C(=O)O; Abu = CC[C@H](N)C(=O)O; Sar = CNCC(=O)O; tBu = CC(C)(C)*

Test: PAMPA (parallel artificial membrane permeability assay)
Assay type: in vitro ADME
Settings: PAMPA
Procedure: 4 μL of a phospholipid-organic solvent solution composed of 10% (w/v) of egg lecithin, 0.5% (w/v) of cholesterol and dodecane (all purchased from Fluka) was added to a Millipore 96-well membrane filter (hydrophobic PVDF (polyvinylidene difluoride), pore size 0.45 microm) (purchased from Millipore Japan) to make an artificial phospholipid membrane.
A DMSO solution containing the compound at a concentration of 10 mM was added in a percentage of 0.5% (v/v) to a 50 mM MOPSO buffer, pH 6.5, containing 5.0% (w/v) of glycocholic acid, and 330 μL of the mixture was added to a 96-well plate made of Teflon (donor plate). The above artificial phospholipid membrane plate was attached onto the donor plate, and 280 μL of a solution obtained by adding DMSO in a percentage of 0.5% (v/v) to a 50 mM MOPSO buffer, pH 6.5, containing 5.0% (w/w) of glycocholic acid was added onto the artificial phospholipid membrane (acceptor plate). These plates were allowed to stand at 37° C. for 18 hours, after which the concentrations of the compound in the solutions in the donor plate and the acceptor plate were measured by LC/MS or LC/UV, and the membrane permeation rate of the compound (Pe) was calculated by the following formulas (1) and (2), where t is the testing time, A is the membrane filter area, VD is the amount of the donor solution, VA is the amount of the acceptor solution, CD,t is the concentration of the compound in the donor solution at the time t, and CA,t is the concentration of the compound in the acceptor solution at the time t.

[1] = membrane permeation rate (Pe), 50 mM MOPSO buffer pH 6.5 with 5.0% glycocholic acid, 37° C., 18 hours, read-out: iPAMPA Pe

CC[C@H](C)[C@@H]1NC(=O)[C@H](C)N(C)C(=O)[C@H](CC(C)C)N(C)C(=O)CCCN(C)C(=O)C[C@@H](C(=O)N(C)[C@@H](Cc2ccccc2)C(=O)N[C@@H](C)C(=O)N2CCCCC2)NC(=O)[C@H](CC(C)C)N(C)C(=O)[C@H](C)N(C)C(=O)[C@H]([C@@H](C)O)NC(=O)[C@H](Cc2ccccc2)N(C)C(=O)[C@H](Cc2ccccc2)N(C)C(=O)[C@H](CC(C)C)N(C)C1=O [DP-366] ([NMeGABA][NMeL][NMeA]I[NMeL][NMeF][NMeF]T[NMeA][NMeL]D[NMeF]A-Piperidide; lactam N-11)
Papp at 18 hours, 50 µM [1]: 14 ×10⁻⁶ cm/s

CC[C@H](C)[C@@H]1NC(=O)[C@H](C)N(C)C(=O)[C@H]([C@@H](C)O)NC(=O)[C@H](CC(C)C)N(C)C(=O)[C@H](Cc2ccccc2)NC(=O)[C@H](C(C)C)N(C)C(=O)[C@H](CC(C)C)N(C)C(=O)[C@H](C)N(C)C(=O)C[C@@H](C(=O)N(C)[C@@H](Cc2ccccc2)C(=O)N[C@@H](C)C(=O)N2CCCCC2)NC(=O)[C@H](CC(C)C)N(C)C1=O [DP-376] ([NMeA][NMeL][NMeV]F[NMeL]T[NMeA]I[NMeL]D[NMeF]A-Piperidide; lactam N-10)
Papp at 18 hours, 50 µM [1]: 29 ×10⁻⁶ cm/s

CC(C)C[C@H]1C(=O)N(C)[C@@H](Cc2ccccc2)C(=O)NCC(=O)N(C)[C@@H](Cc2ccccc2)C(=O)N(C)[C@@H](C)C(=O)N[C@@H]([C@@H](C)O)C(=O)N[C@H](C(=O)N(C)[C@@H](Cc2ccccc2)C(=O)N(C)[C@@H](Cc2ccccc2)C(=O)N[C@@H](C)C(=O)N2CCCCC2)CC(=O)N(C)CCC(=O)N[C@@H](C(C)C)C(=O)N1C [DP-312] ([NMeβAla]V[NMeL][NMeF]G[NMeF][NMeA]TD[NMeF][NMeF]A-Piperidide; lactam N-9)
Papp at 18 hours, 50 µM (pH 6.5): 47 ×10⁻⁶ cm/s

CC(C)C[C@@H]1NC(=O)[C@H](Cc2ccccc2)N(C)C(=O)[C@@H](C(C)C)NC(=O)C[C@@H](C(=O)N2CCCCC2)NC(=O)[C@H](C(C)C)N(C)C(=O)[C@H](Cc2ccccc2)N(C)C(=O)[C@H](COC(C)(C)C)NC(=O)[C@H](CC(C)C)N(C)C(=O)CN(C)C(=O)[C@H]([C@@H](C)O)NC(=O)[C@H](CC(C)C)N(C)C1=O [DP-149] ([dV][NMeF]L[NMeL]T[Sar][NMeL]S(tBu)[NMeF][NMeV]D-Piperidide; lactam N-11)
Papp at 18 hours, 50 µM (pH 6.5): 17 ×10⁻⁶ cm/s

CC[C@H](C)[C@@H]1NC(=O)[C@H](CC(C)C)N(C)C(=O)[C@H](C)N(C)C(=O)[C@H](C)N(C)C(=O)CCN(C)C(=O)C[C@@H](C(=O)N(C)[C@@H](Cc2ccccc2)C(=O)N[C@@H](C)C(=O)N2CCCCC2)NC(=O)[C@H](Cc2ccccc2)N(C)C(=O)[C@H](C)N(C)C(=O)[C@H]([C@@H](C)O)NC(=O)[C@H](Cc2ccccc2)N(C)C(=O)[C@H](C)N(C)C1=O [DP-362] ([NMeβAla][NMeA][NMeA][NMeL]I[NMeA][NMeF]T[NMeA][NMeF]D[NMeF]A-Piperidide; lactam N-11)
Papp at 18 hours, 50 µM [1]: 27 ×10⁻⁶ cm/s

CC(C)C[C@@H]1NC(=O)[C@H](CC(C)C)N(C)C(=O)[C@H](C)N(C)C(=O)C[C@@H](C(=O)N(C)[C@@H](Cc2ccccc2)C(=O)N[C@@H](C)C(=O)N2CCCCC2)NC(=O)[C@H]([C@@H](C)O)NC(=O)[C@H](CC(C)C)N(C)C(=O)[C@H](Cc2ccccc2)NC(=O)[C@H](Cc2ccccc2)N(C)C(=O)[C@H](CC(C)C)N(C)C1=O [DP-387] ([NMeA][NMeL]L[NMeL][NMeF]F[NMeL]TD[NMeF]A-Piperidide; lactam N-9)
Papp at 18 hours, 50 µM [1]: 2.8 ×10⁻⁶ cm/s

CC[C@H](C)[C@@H]1NC(=O)[C@H](Cc2ccccc2)N(C)C(=O)[C@H](C)N(C)C(=O)[C@H](CC(C)C)N(C)C(=O)[C@H](Cc2ccccc2)N(C)C(=O)CCN(C)C(=O)C[C@@H](C(=O)N(C)[C@@H](Cc2ccccc2)C(=O)N(C)[C@@H](Cc2ccccc2)C(=O)N[C@@H](C)C(=O)N2CCCCC2)NC(=O)[C@H]([C@@H](C)O)NC(=O)[C@H](CC(C)C)N(C)C(=O)[C@H](CC(C)C)N(C)C1=O [DP-499] ([NMeβAla][NMeF][NMeL][NMeA][NMeF]I[NMeL][NMeL]TD[NMeF][NMeF]A-Piperidide; lactam N-10)
Papp at 18 hours, 50 µM [1]: 0.31 ×10⁻⁶ cm/s

CC[C@H](C)[C@@H]1NC(=O)[C@H](CC(C)C)N(C)C(=O)[C@H](C)N(C)C(=O)[C@H](Cc2ccccc2)N(C)C(=O)[C@@H](C)N(C)C(=O)C[C@@H](C(=O)N2CCCCC2)NC(=O)[C@H](CC(C)C)N(C)C(=O)[C@H]([C@@H](C)O)NC(=O)[C@H](CO)NC(=O)[C@H](CC(C)C)NC(=O)[C@H](C)N(C)C(=O)[C@H](CC(C)C)N(C)C(=O)[C@H](Cc2ccccc2)NC(=O)[C@H](CC(C)C)N(C)C1=O [DP-959] ([dNMeA][NMeF][NMeA][NMeL]I[NMeL]F[NMeL][NMeA]LST[NMeL]D-Piperidide; lactam N-14)
Papp at 18 hours, 50 µM [1]: 2.9 ×10⁻⁶ cm/s

CC[C@@H]1NC(=O)[C@H](CO)N(C)C(=O)[C@H](CC(C)C)N(C)C(=O)[C@H](CC(C)C)N(C)C(=O)[C@H](CC(C)C)N(C)C(=O)[C@@H](C)NC(=O)[C@H](CC(C)C)NC(=O)C[C@@H](C(F)(F)F)NC(=O)[C@H](C(C)C)NC(=O)[C@H](CC(C)C)N(C)C(=O)CN(C)C1=O [DP-656] (cyclo([Abu][Sar][NMeL]V[X2]L[dA][NMeL][NMeL][NMeL][NMeS]))
Papp at 18 hours, 50 µM [1]: 30 ×10⁻⁶ cm/s

CC[C@H](C)[C@H](NC(=O)[C@H](C)N(C)C(=O)[C@@H]1CC(=O)N(C)[C@H](C)C(=O)N(C)[C@@H](C)C(=O)N(C)[C@@H](Cc2ccccc2)C(=O)N(C)[C@@H](CC(C)C)C(=O)N[C@@H]([C@@H](C)O)C(=O)N(C)[C@@H](C)C(=O)N(C)[C@@H](CC(C)C)C(=O)N[C@@H](CO)C(=O)N1)C(=O)N1CCC[C@H]1C(=O)N[C@H](C(=O)N[C@@H](C)C(=O)N1CCCCC1)C(C)C [DP-578] ([dNMeA][NMeA][NMeF][NMeL]T[NMeA][NMeL]SD[NMeA]IPVA-Piperidide; lactam N-9)
Papp at 18 hours, 50 µM [1]: 3.4 ×10⁻⁶ cm/s

CC(C)C[C@H]1C(=O)N(C)[C@@H](CC(C)C)C(=O)N(C)[C@@H](Cc2ccccc2)C(=O)N[C@@H]([C@@H](C)O)C(=O)N(C)[C@@H](C)C(=O)N(C)[C@@H](CC(C)C)C(=O)N(C)[C@@H](Cc2ccccc2)C(=O)N[C@H](C(=O)N(C)[C@@H](Cc2ccccc2)C(=O)N[C@@H](C)C(=O)N2CCCCC2)CC(=O)N(C)[C@H](C)C(=O)N(C)[C@@H](CC(C)C)C(=O)N[C@@H](C)C(=O)N1C [DP-184] ([dNMeA][NMeL]A[NMeL][NMeL][NMeF]T[NMeA][NMeL][NMeF]D[NMeF]A-Piperidide; lactam N-11)
Papp at 18 hours, 50 µM [1]: 1.3 ×10⁻⁶ cm/s

CC[C@H](C)[C@@H]1NC(=O)[C@H](CC(C)C)N(C)C(=O)[C@H](Cc2ccccc2)N(C)C(=O)[C@H]([C@@H](C)O)NC(=O)[C@H](C)N(C)C(=O)CCCN(C)C(=O)C[C@@H](C(=O)N(C)[C@@H](Cc2ccccc2)C(=O)N[C@@H](C)C(=O)N2CCCCC2)NC(=O)[C@H](CC(C)C)N(C)C(=O)[C@H](Cc2ccccc2)N(C)C(=O)[C@H](CC(C)C)N(C)C1=O [DP-373] ([NMeGABA][NMeA]T[NMeF][NMeL]I[NMeL][NMeF][NMeL]D[NMeF]A-Piperidide; lactam N-10)
Papp at 18 hours, 50 µM [1]: 9.2 ×10⁻⁶ cm/s

CC(C)C[C@H]1C(=O)N(C)[C@@H](C)C(=O)N[C@@H](COC(C)(C)C)C(=O)N(C)[C@@H](C(C)C)C(=O)N[C@H](C(=O)N2CCCCC2)CC(=O)N(C)[C@@H](C)C(=O)N(C)[C@@H](Cc2ccccc2)C(=O)N[C@@H](C)C(=O)N(C)[C@@H](C)C(=O)N[C@@H](Cc2ccccc2)C(=O)N[C@@H]([C@@H](C)O)C(=O)N(C)[C@@H](C)C(=O)N1C [DP-317] ([NMeA][NMeF]A[NMeA]FT[NMeA][NMeL][NMeA]S(tBu)[NMeV]D-Piperidide; lactam N-12)
Papp at 18 hours, 50 µM [1]: 20 ×10⁻⁶ cm/s

CC(C)C[C@@H]1NC(=O)[C@H](CC(C)C)N(C)C(=O)CCN(C)C(=O)C[C@@H](C(=O)N(C)[C@@H](Cc2ccccc2)C(=O)N[C@@H](C)C(=O)N2CCCCC2)NC(=O)[C@H](CC(C)C)N(C)C(=O)[C@H](Cc2ccccc2)NC(=O)[C@H](Cc2ccccc2)N(C)C(=O)[C@H](C)NC(=O)[C@H]([C@@H](C)O)NC(=O)[C@H](CC(C)C)N(C)C1=O [DP-369] ([NMeβAla][NMeL]L[NMeL]TA[NMeF]F[NMeL]D[NMeF]A-Piperidide; lactam N-10)
Papp at 18 hours, 50 µM [1]: 26 ×10⁻⁶ cm/s

CC(C)C[C@H]1C(=O)N[C@@H](C(C)C)C(=O)N(C)[C@@H](CC(C)C)C(=O)N[C@@H](C)C(=O)N[C@H](C)C(=O)N(C)[C@@H](CC(C)C)C(=O)N(C)[C@@H](CC(C)C)C(=O)N(C)[C@@H](CC(C)C)C(=O)N(C)[C@@H](CO)C(=O)N[C@H](C(F)(F)F)CC(=O)N(C)CC(=O)N1C [DP-654] (cyclo(A[dA][NMeL][NMeL][NMeL][NMeS][X2][Sar][NMeL]V[NMeL]))
Papp at 18 hours, 50 µM [1]: 23 ×10⁻⁶ cm/s

CC(C)C[C@H]1C(=O)N(C)[C@@H](Cc2ccccc2)C(=O)N(C)[C@@H](Cc2ccccc2)C(=O)N[C@@H]([C@@H](C)O)C(=O)N(C)[C@@H](C)C(=O)N(C)[C@@H](CC(C)C)C(=O)N[C@H](C(=O)N2CCCCC2)CC(=O)N(C)[C@H](C)C(=O)N(C)[C@@H](CC(C)C)C(=O)N(C)[C@@H](CC(C)C)C(=O)N[C@@H](C)C(=O)N1C [DP-166] ([dNMeA][NMeL][NMeL]A[NMeL][NMeF][NMeF]T[NMeA][NMeL]D-Piperidide; lactam N-11)
Papp at 18 hours, 50 µM [1]: 55 ×10⁻⁶ cm/s

COCCc1ccc(OCC(O)CNC(C)C)cc1 (centres unmarked) [metoprolol, reference compound]
Papp at 18 h, 50 µM: 29 ×10⁻⁶ cm/s
